{"source": "patent EP0342850A1", "about": "“Enantiomeric glutaramide diuretic agents” (Pfizer Limited, priority 1988, dated 1989)", "key": {"mice": {"test_system": "mice", "experiment": "induction of natriuresis in mice in vivo (procedure of European patent application 0274234)", "conditions": "dose (mg/kg) given", "excerpt": "(§1) Appropriate reagents and conditions for the various coupling and deprotection steps, described above, together with procedures for determining the biological activity of the products of formula (II) and appropriate pharmaceutical compositions and dosage ranges for their use are described in European patent application no. 0274234.\n(§2) The activity of the racemate and separated enantiomers of the cis-4-{1-[2-carboxy-3-(2-methoxyethoxy)propyl]-1-cyclopentanecarboxamido}-1-cyclohexanecarboxylic acid was assessed by measuring their ability to inhibit the neutral endopeptidase E.C.3.4.24.11 in vitro or to induce natriuresis in mice in vivo following the procedure described in European patent application 0274234."}, "[1]": {"test_system": "neutral endopeptidase E.C.3.4.24.11", "experiment": "inhibition of neutral endopeptidase E.C.3.4.24.11 in vitro (procedure of European patent application 0274234)", "format": "biochemical", "conditions": "general statement on the separated enantiomers of the diacid", "excerpt": "as §1, §2"}}, "data": [{"molecule": "COCCOCC(CC1(C(=O)N[C@H]2CC[C@@H](C(=O)O)CC2)CCCC1)C(=O)O", "note": "(mixture of isomers) [(±) R,S, cis-4-{1-[2-carboxy-3-(2-methoxyethoxy)propyl]-1-cyclopentanecarboxamido}-1-cyclohexanecarboxylic acid]", "values": [{"measurement": "Natriuresis in mouse (i.v.)", "setting": "mice", "value": "active at 3 mg/kg"}]}, {"molecule": "COCCOCC(CC1(C(=O)N[C@H]2CC[C@@H](C(=O)O)CC2)CCCC1)C(=O)O", "note": "(relative stereo) [(-) R, cis-4-{1-[2-carboxy-3-(2-methoxyethoxy)propyl]-1-cyclopentanecarboxamido}-1-cyclohexanecarboxylic acid]", "values": [{"measurement": "biological activity", "setting": "[1]", "value": "virtually inactive"}, {"measurement": "Natriuresis in mouse (i.v.)", "setting": "mice", "value": "inactive at 3 mg/kg"}]}, {"molecule": "COCCOC[C@H](CC1(C(=O)N[C@H]2CC[C@@H](C(=O)O)CC2)CCCC1)C(=O)O", "note": "(racemic) [(±) S, (S)-cis-4-{1-[2-Carboxy-3-(2-methoxyethoxy)propyl]-1-cyclopentanecarboxamido}-1-cyclohexanecarboxylic acid]", "values": [{"measurement": "Natriuresis in mouse (i.v.)", "setting": "mice", "value": "active at 1.5 mg/kg"}]}]}
